Assay results published in patent US6713513B2, “Method for treating cartilage related diseases” (Juneng Industry Co., Ltd., priority 2001, dated 2004).
Marks after values point to notes of the source that are not given here.

Tests used:
[1] = tested on: mRNA of collagen I of osteocyte; assay: Hybridization in situ of mRNA of collagen I, osteocytes, femur of rats with retinoic acid osteoporosis; format: in vivo, rat; settings: for Positive Case Nos. of osteocyte (mRNA of collagen I) / Positive percentage of mRNA of collagen I, osteocyte: 100 mg/kg body weight, 10 weeks
Experimental: (§1) The rats were administered drugs for 10 weeks, respectively.
(§2) Collagen I was stained by hybridization in situ, following the directions of the kit. After specific hybridization, mRNA of collagen I was developed by 3,3′-diaminobenzidine (DAB). The slide was routinely dehydrated and mounted.
(§3) X2 test was conducted to the experimental data.

[2] = tested on: bone tissue of the rat with osteoporosis caused by retinoic acid; assay: Histochemical staining (M-S, T-B, HE, V-K silver) of bone and cartilage; settings: for Articular cartilage / cartilage matrix: blank-control group as normal reference; for Bone trabeculae in cancellous bone (figure legends): FIGS. 7, 13, 14; for Formation of new bone: compared with blank-control group
Experimental: (§4) Grouping of animals: 66 male 3-month-aged rats were used in the present test. Eight rats were randomly selected as blank-control group, which were fed with normal diet and tap water. The other 58 rats were randomly divided into 9 groups, and were continuously administered retinoic acid with a dosage of 70 mg/kg body weight and volume of 10 ml/kg body weight, and were fed with low calcium diet meanwhile. After two weeks of administration of retinoic acid, stop the drug and thus establishing osteoporosis models.
(4) Calcium citrate group: 6 rats, administered calcium citrate with a dosage of 100 mg/kg body weight
(5) Sodium hydroxyethyl phosphate group: 6 rats, administered sodium hydroxyethyl phosphate with a dosage of 100 mg/kg body weight
(§5) The rats were administered drugs for 10 weeks, respectively. During the whole test period, each group was fed with low calcium diet and de-ionized water except that the blank-control group was fed with normal diet. Then the lower one third of right femur of each rat was extracted, and preserved at −20° C.
(2) Histochemical Staining
a Masson-Goldner Lrichrone staining (M-S staining)
b Toluidine Blue staining (T-B staining)
c Hematoxylin-eosin (HE) staining
d Von Kossa silver staining of partial slice (V-K silver staining).

[3] = tested on: collagen I of chondrocyte; assay: Immunohistochemical staining of collagen I (ABC method), chondrocytes, rats with retinoic acid osteoporosis; settings: for Positive Case Nos. of chondrocyte (collagen I immunohistochemical staining) / Positive percentage of collagen I by immunohistochemical staining, chondrocyte: 100 mg/kg body weight, 10 weeks
Experimental: as §4, §5
Collagen I was immunohistochemically stained by ABC method, following the directions of kit. Collagen I was developed by DAB. The slide was routinely dehydrated and mounted. (The detection kit was provided by Wuhan Doctor Microbiologic Engineering Co. Ltd., China. Cat. No: BA0325)
The results were observed by microscopy, which was expressed by positive percentage. X2 test was conducted to the experimental data.

[4] = tested on: mRNA of collagen I of chondrocyte; assay: Hybridization in situ of mRNA of collagen I, chondrocytes, femur of rats with retinoic acid osteoporosis; format: in vivo, rat
Experimental: as §1, §2, §3

[5] = 100 mg/kg body weight, 10 weeks

## O=P([O-])([O-])OCCO.[Na+].[Na+] [Sodium hydroxyethyl phosphate, sodium hydroxyethyl phosphate]
[1]
  Positive Case Nos. of osteocyte (mRNA of collagen I): 2
  Positive percentage of mRNA of collagen I, osteocyte: 33.3%
[2]; 10 weeks
  Articular cartilage / cartilage matrix: developed retrograde affection
[2]
  Bone trabeculae in cancellous bone (figure legends): excessive and disorganized
[2]; histochemical staining of glycogen, FIGS. 8, 13, 14
  Staining of glycogen in cancellous bone (figure legends): less glycogen
[3]
  Positive Case Nos. of chondrocyte (collagen I immunohistochemical staining): 2
  Positive percentage of collagen I by immunohistochemical staining, chondrocyte: 33.3%

## O=C([O-])CC(O)(CC(=O)[O-])C(=O)[O-].O=C([O-])CC(O)(CC(=O)[O-])C(=O)[O-].[Ca+2].[Ca+2].[Ca+2] [Calcium citrate, calcium citrate]
[1]
  Positive Case Nos. of osteocyte (mRNA of collagen I): 2
  Positive percentage of mRNA of collagen I, osteocyte: 33.3%
[4]; [5]
  Positive Case Nos. of chondrocyte (mRNA of collagen I): 0 (0%)
  Positive percentage of mRNA of collagen I, chondrocyte: 0 (0%)
[2]; 10 weeks
  Formation of new bone: less than those of the blank-control group
[3]
  Positive Case Nos. of chondrocyte (collagen I immunohistochemical staining): 0 (0%)**
  Positive percentage of collagen I by immunohistochemical staining, chondrocyte: 0 (0%)**

## calcium L-threonate
[1]; rat, in vivo
  Positive percentage of mRNA of collagen I compared with Model-control group: significantly higher than Model-control group
[4]; rat, in vivo
  Expression percentage of mRNA of collagen I compared with model-control group: significantly higher than that of model-control group
[2]; 10 weeks
  Nourishing blood vessels of the bone: increased
  Articular cartilage / cartilage matrix: Cartilage collagen fibers and matrix thickened
  Formation of new bone: increased
[2]
  Bone trabeculae in cancellous bone (figure legends): thick, dense and ordered
[2]; silver staining, FIGS. 9, 10, 11, 20
  Osteocollagenous fibers by silver staining (figure legends): parallel, regular and abundant
[3]; rat, in vivo
  Positive percentages of collagen I by immunohistochemistry, comparison of groups: relatively higher
